The record followed here is patent US20200354426A1 (MEDIMMUNE LIMITED, priority 2016, published 2020).

For one assay, the target named is T1, Human GlucR (Homo sapiens, UniProt P47871).
T1 construct: expressed in transfected cells
The experiment in a line: cAMP activity assay in assay medium (assay 1). Format: cell-based. The settings on record: assay medium. The source says:
(§1) Biological Activity of Peptides in Cell-Based cAMP Activity Assay (Assay 1):
(§2) All sample dilutions were made in duplicate.

The next assay addresses Human GLP1R (Homo sapiens, UniProt P43220). The experiment in a line: cAMP activity assay in assay medium (assay 1). In kind it is cell-based. Also on record: expressed in transfected cells. The settings on record: assay medium.
Text: as §1, §2

Where two headings read alike, the source gives them in different places. Numbered stars: 1 amine (or outer) side, 2 acyl side, 3 side chain; on linkers, the order of the positions; unused ones are H or OH. Side chains are listed from the residue outwards. Peptide text beside a SMILES is read from it. * marks the point of attachment. γGlu = O=C(O)[C@H](CCC(=O)[*:2])N[*:1]; Palmitoyl = CCCCCCCCCCCCCCCC(=O)*

Human GLP1R, sequence (P43220 24-463): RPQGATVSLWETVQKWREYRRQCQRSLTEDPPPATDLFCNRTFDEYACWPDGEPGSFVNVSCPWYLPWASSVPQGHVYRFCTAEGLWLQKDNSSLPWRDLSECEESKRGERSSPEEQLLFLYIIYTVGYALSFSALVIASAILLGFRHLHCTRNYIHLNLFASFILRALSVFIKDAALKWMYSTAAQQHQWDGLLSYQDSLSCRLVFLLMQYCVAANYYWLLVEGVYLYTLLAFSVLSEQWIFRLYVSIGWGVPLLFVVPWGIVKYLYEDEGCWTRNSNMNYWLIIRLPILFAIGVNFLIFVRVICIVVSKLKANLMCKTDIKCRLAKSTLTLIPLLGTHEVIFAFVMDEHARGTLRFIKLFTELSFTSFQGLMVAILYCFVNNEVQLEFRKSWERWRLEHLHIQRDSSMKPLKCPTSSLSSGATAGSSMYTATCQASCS
T1 sequence (P47871 26-477): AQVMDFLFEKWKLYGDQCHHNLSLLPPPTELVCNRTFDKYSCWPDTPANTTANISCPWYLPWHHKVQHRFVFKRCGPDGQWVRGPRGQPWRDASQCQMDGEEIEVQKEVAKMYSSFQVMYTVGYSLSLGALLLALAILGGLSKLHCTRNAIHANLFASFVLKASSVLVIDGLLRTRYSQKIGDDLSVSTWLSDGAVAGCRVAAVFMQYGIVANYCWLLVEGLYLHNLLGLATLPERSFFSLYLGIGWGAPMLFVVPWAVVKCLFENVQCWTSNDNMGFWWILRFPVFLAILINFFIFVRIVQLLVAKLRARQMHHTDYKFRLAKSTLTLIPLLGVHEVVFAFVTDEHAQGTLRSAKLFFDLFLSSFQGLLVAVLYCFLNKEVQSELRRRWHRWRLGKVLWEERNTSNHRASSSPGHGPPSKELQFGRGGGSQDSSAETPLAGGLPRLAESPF

Regarding `CCCCCCCCCCCCCCCC(=O)N[C@@H](CCC(=O)NCCCC[C@H](NC(=O)[C@H](CCCCN)NC(=O)[C@H](CO)NC(=O)[C@H](Cc1ccc(O)cc1)NC(=O)[C@H](CC(=O)O)NC(=O)[C@H](CO)NC(=O)[C@@H](NC(=O)[C@H](Cc1ccccc1)NC(=O)[C@@H](NC(=O)CNC(=O)[C@H](CCC(N)=O)NC(=O)[C@H](CO)NC(=O)[C@@H](N)Cc1c[nH]cn1)[C@@H](C)O)[C@@H](C)O)C(=O)N[C@@H](CC(C)C)C(=O)N[C@@H](CC(=O)O)C(=O)N[C@@H](CO)C(=O)N[C@@H](CCC(=O)O)C(=O)N[C@@H](CCCNC(=N)N)C(=O)N[C@@H](C)C(=O)N[C@@H](CCCNC(=N)N)C(=O)N[C@@H](CC(=O)O)C(=O)N[C@@H](Cc1ccccc1)C(=O)N[C@H](C(=O)N[C@@H](C)C(=O)N[C@@H](Cc1c[nH]c2ccccc12)C(=O)N[C@@H](CC(C)C)C(=O)N[C@H](C(=O)N[C@@H](C)C(=O)NCC(=O)NCC(=O)O)C(C)C)C(C)C)C(=O)O` [Peptide G931] (H-HSQGTFTSDYSKK([γGlu-Palmitoyl])LDSERARDFVAWLVAGG-OH; N-terminus assumed), the EC50 at Human GlucR (Table 3, C-terminal acid peptides, read-out: Human GlucR EC50) came out at 0.0178 nM; on Human GLP1R (Table 3, C-terminal acid peptides, read-out: Human GLP1R EC50), 0.13 nM.

With `CC(C)C[C@H](NC(=O)[C@H](Cc1ccc(O)cc1)NC(=O)[C@H](CCCCN)NC(=O)[C@H](CO)NC(=O)[C@H](Cc1ccc(O)cc1)NC(=O)[C@H](CC(=O)O)NC(=O)[C@H](CO)NC(=O)[C@@H](NC(=O)[C@H](Cc1ccccc1)NC(=O)[C@@H](NC(=O)CNC(=O)[C@H](CCC(N)=O)NC(=O)[C@H](CO)NC(=O)[C@@H](N)Cc1c[nH]cn1)[C@@H](C)O)[C@@H](C)O)C(=O)N[C@@H](CC(=O)O)C(=O)N[C@@H](CO)C(=O)N[C@@H](CCCNC(=N)N)C(=O)N[C@@H](CCCNC(=N)N)C(=O)N[C@@H](C)C(=O)N[C@@H](CCC(N)=O)C(=O)N[C@@H](CC(=O)O)C(=O)N[C@@H](Cc1ccccc1)C(=O)N[C@H](C(=O)N[C@@H](CCC(N)=O)C(=O)N[C@@H](Cc1c[nH]c2ccccc12)C(=O)N[C@@H](CC(C)C)C(=O)N[C@H](C(=O)N[C@@H](CCCNC(=N)N)C(=O)NCC(=O)NCC(=O)N[C@@H](CO)C(=O)N[C@@H](CO)C(=O)NCC(=O)NCC(=O)N[C@@H](CO)C(=O)N[C@@H](CO)C(=O)N[C@@H](CCCCN)C(N)=O)C(C)C)C(C)C` [g317], the EC50 at Human GLP1R (Table 4, read-out: hGLP1R EC50) is 2.63 nM.

As for `CCCCCCCCCCCCCCCC(=O)NCCCC[C@H](NC(=O)[C@H](CO)NC(=O)[C@H](CO)NC(=O)CNC(=O)CNC(=O)[C@H](CO)NC(=O)[C@H](CO)NC(=O)CNC(=O)CNC(=O)[C@H](CCCNC(=N)N)NC(=O)[C@@H](NC(=O)[C@H](CC(C)C)NC(=O)[C@H](Cc1c[nH]c2ccccc12)NC(=O)[C@H](CCC(N)=O)NC(=O)[C@@H](NC(=O)[C@H](Cc1ccccc1)NC(=O)[C@H](CC(=O)O)NC(=O)[C@H](CCC(N)=O)NC(=O)[C@H](C)NC(=O)[C@H](CCCNC(=N)N)NC(=O)[C@H](CCCNC(=N)N)NC(=O)[C@H](CO)NC(=O)[C@H](CC(=O)O)NC(=O)[C@H](CC(C)C)NC(=O)[C@H](Cc1ccc(O)cc1)NC(=O)[C@H](CCCCN)NC(=O)[C@H](CO)NC(=O)[C@H](Cc1ccc(O)cc1)NC(=O)[C@H](CC(=O)O)NC(=O)[C@H](CO)NC(=O)[C@@H](NC(=O)[C@H](Cc1ccccc1)NC(=O)[C@@H](NC(=O)CNC(=O)[C@H](CCC(N)=O)NC(=O)[C@H](CO)NC(=O)[C@@H](N)Cc1c[nH]cn1)[C@@H](C)O)[C@@H](C)O)C(C)C)C(C)C)C(N)=O` [g318], the EC50 stood at 9.04 nM on Human GlucR (Table 4, read-out: hGlucR EC50) and 1.14 nM on Human GLP1R (Table 4, read-out: hGLP1R EC50).

For the molecule `CC(C)C[C@H](NC(=O)[C@H](Cc1ccc(O)cc1)NC(=O)[C@H](CCCCN)NC(=O)[C@H](CO)NC(=O)[C@H](Cc1ccc(O)cc1)NC(=O)[C@H](CC(=O)O)NC(=O)[C@H](CO)NC(=O)[C@@H](NC(=O)[C@H](Cc1ccccc1)NC(=O)[C@@H](NC(=O)CNC(=O)[C@H](CCC(N)=O)NC(=O)[C@H](CO)NC(=O)[C@@H](N)Cc1c[nH]cn1)[C@@H](C)O)[C@@H](C)O)C(=O)N[C@@H](CC(=O)O)C(=O)N[C@@H](CO)C(=O)N[C@@H](CCCNC(=N)N)C(=O)N[C@@H](CCCNC(=N)N)C(=O)N[C@@H](C)C(=O)N[C@@H](CCC(N)=O)C(=O)N[C@@H](CC(=O)O)C(=O)N[C@@H](Cc1ccccc1)C(=O)N[C@H](C(=O)N[C@@H](CCC(N)=O)C(=O)N[C@@H](Cc1c[nH]c2ccccc12)C(=O)N[C@@H](CC(C)C)C(=O)N[C@H](C(=O)N[C@@H](CCCNC(=N)N)C(=O)NCC(=O)NCC(=O)NCC(=O)NCC(=O)NCC(=O)NCC(=O)N[C@@H](CCCCN)C(N)=O)C(C)C)C(C)C` [g325], on Human GlucR (Table 4, read-out: hGlucR EC50), the EC50 is 0.0103 nM.

Take `CC(C)C[C@H](NC(=O)[C@H](Cc1ccc(O)cc1)NC(=O)[C@H](CCCCN)NC(=O)[C@H](CO)NC(=O)[C@H](Cc1ccc(O)cc1)NC(=O)[C@H](CC(=O)O)NC(=O)[C@H](CO)NC(=O)[C@@H](NC(=O)[C@H](Cc1ccccc1)NC(=O)[C@@H](NC(=O)CNC(=O)[C@H](CCC(N)=O)NC(=O)[C@H](CO)NC(=O)[C@@H](N)Cc1c[nH]cn1)[C@@H](C)O)[C@@H](C)O)C(=O)N[C@@H](CC(=O)O)C(=O)N[C@@H](CO)C(=O)N[C@@H](CCCNC(=N)N)C(=O)N[C@@H](CCCNC(=N)N)C(=O)N[C@@H](C)C(=O)N[C@@H](CCC(N)=O)C(=O)N[C@@H](CC(=O)O)C(=O)N[C@@H](Cc1ccccc1)C(=O)N[C@H](C(=O)N[C@@H](CCC(N)=O)C(=O)N[C@@H](Cc1c[nH]c2ccccc12)C(=O)N[C@@H](CC(C)C)C(=O)N[C@H](C(=O)N[C@@H](CCCNC(=N)N)C(=O)NCC(=O)NCC(=O)N[C@@H](CO)C(=O)NCC(=O)N[C@@H](CO)C(=O)NCC(=O)N[C@@H](CO)C(=O)NCC(N)=O)C(C)C)C(C)C` [g402]: the EC50 came out at 0.0596 nM at Human GlucR (Table 4, read-out: hGlucR EC50) and 0.0857 nM at Human GLP1R (Table 4, read-out: hGLP1R EC50).

Turning to `CCCCCCCCCCCCCCCC(=O)NCCCCCC(=O)NCCCC[C@H](NC(=O)[C@H](CO)NC(=O)[C@H](CC(=O)O)NC(=O)[C@H](CC(C)C)NC(=O)[C@H](Cc1ccc(O)cc1)NC(=O)[C@H](CCC(=O)O)NC(=O)[C@H](CO)NC(=O)[C@H](Cc1ccc(O)cc1)NC(=O)[C@H](CC(=O)O)NC(=O)[C@H](CO)NC(=O)[C@@H](NC(=O)[C@H](Cc1ccccc1)NC(=O)[C@@H](NC(=O)CNC(=O)[C@H](CCC(N)=O)NC(=O)CNC(=O)[C@@H](N)Cc1c[nH]cn1)[C@@H](C)O)[C@@H](C)O)C(=O)N[C@@H](CCCNC(=N)N)C(=O)N[C@@H](C)C(=O)N[C@@H](CCCNC(=N)N)C(=O)N[C@@H](CC(=O)O)C(=O)N[C@@H](Cc1ccccc1)C(=O)N[C@H](C(=O)N[C@@H](CCC(=O)O)C(=O)N[C@@H](Cc1c[nH]c2ccccc12)C(=O)N[C@@H](CC(C)C)C(=O)N[C@@H](CCC(=O)O)C(=O)N[C@@H](CCCNC(=N)N)C(=O)NCC(=O)NCC(N)=O)C(C)C` [g682], the EC50 at Human GlucR (Table 4, read-out: hGlucR EC50) was determined as 0.195 nM; at Human GLP1R (Table 4, read-out: hGLP1R EC50), 0.0143 nM.

Consider `CCCCCCCCCCCCCCCC(=O)N[C@@H](CCC(=O)NCCCC[C@H](NC(=O)[C@H](CO)NC(=O)[C@H](Cc1ccc(O)cc1)NC(=O)[C@H](CC(=O)O)NC(=O)[C@H](CO)NC(=O)[C@@H](NC(=O)[C@H](Cc1ccccc1)NC(=O)[C@@H](NC(=O)CNC(=O)[C@H](CCC(N)=O)NC(=O)CNC(=O)[C@@H](N)Cc1c[nH]cn1)[C@@H](C)O)[C@@H](C)O)C(=O)N[C@@H](Cc1ccc(O)cc1)C(=O)N[C@@H](CC(C)C)C(=O)N[C@@H](CC(=O)O)C(=O)N[C@@H](CO)C(=O)N[C@@H](CCC(=O)O)C(=O)N[C@@H](CCCNC(=N)N)C(=O)N[C@@H](C)C(=O)N[C@@H](CCC(N)=O)C(=O)N[C@@H](CC(=O)O)C(=O)N[C@@H](Cc1ccccc1)C(=O)N[C@H](C(=O)N[C@@H](CCC(N)=O)C(=O)N[C@@H](Cc1c[nH]c2ccccc12)C(=O)N[C@@H](CC(C)C)C(=O)N[C@@H](CCC(=O)O)C(=O)N[C@@H](CCCNC(=N)N)C(=O)NCC(=O)NCC(N)=O)C(C)C)C(=O)O` [g701] (H-HGQGTFTSDYSK([γGlu-Palmitoyl])YLDSERAQDFVQWLERGG-NH2; N-terminus assumed), for which the 50% effective concentration (EC50) on Human GlucR (Table 4, read-out: hGlucR EC50) was 3.83 nM; on Human GLP1R (Table 4, read-out: hGLP1R EC50), 7.4 nM.

Turning to `CCCCCCCCCCCCCCCC(=O)N[C@@H](CCC(=O)NCCCC[C@H](NC(=O)[C@H](CO)NC(=O)[C@H](Cc1ccc(O)cc1)NC(=O)[C@H](CC(=O)O)NC(=O)[C@H](CO)NC(=O)[C@@H](NC(=O)[C@H](Cc1ccccc1)NC(=O)[C@@H](NC(=O)CNC(=O)[C@H](CCC(N)=O)NC(=O)[C@H](CO)NC(=O)[C@@H](N)Cc1c[nH]cn1)[C@@H](C)O)[C@@H](C)O)C(=O)N[C@@H](Cc1ccc(O)cc1)C(=O)N[C@@H](CC(C)C)C(=O)N[C@@H](CC(=O)O)C(=O)N[C@@H](CO)C(=O)N[C@@H](CCC(=O)O)C(=O)N[C@@H](CCCNC(=N)N)C(=O)N[C@@H](C)C(=O)N[C@@H](CCC(N)=O)C(=O)N[C@@H](CC(=O)O)C(=O)N[C@@H](Cc1ccccc1)C(=O)N[C@H](C(=O)N[C@@H](CCC(N)=O)C(=O)N[C@@H](Cc1c[nH]c2ccccc12)C(=O)N[C@@H](CC(C)C)C(=O)N[C@H](C(=O)N[C@@H](C)C(=O)NCC(=O)NCC(N)=O)C(C)C)C(C)C)C(=O)O` [g702] (H-HSQGTFTSDYSK([γGlu-Palmitoyl])YLDSERAQDFVQWLVAGG-NH2; N-terminus assumed), the EC50 on Human GlucR (Table 4, read-out: hGlucR EC50) stood at 1.49 nM; at Human GLP1R (Table 4, read-out: hGLP1R EC50) it was 3.35 nM.

For `CCCCCCCCCCCCCCCC(=O)N[C@@H](CCC(=O)NCCCC[C@H](NC(=O)[C@H](CO)NC(=O)[C@H](CC(=O)O)NC(=O)[C@H](CC(C)C)NC(=O)[C@H](Cc1ccc(O)cc1)NC(=O)[C@H](CCCNC(=N)N)NC(=O)[C@H](CO)NC(=O)[C@H](Cc1ccc(O)cc1)NC(=O)[C@H](CC(=O)O)NC(=O)[C@H](CO)NC(=O)[C@@H](NC(=O)[C@H](Cc1ccccc1)NC(=O)[C@@H](NC(=O)CNC(=O)[C@H](CCC(N)=O)NC(=O)CNC(=O)[C@@H](N)Cc1c[nH]cn1)[C@@H](C)O)[C@@H](C)O)C(=O)N[C@@H](CCCNC(=N)N)C(=O)N[C@@H](C)C(=O)N[C@@H](CCCNC(=N)N)C(=O)N[C@@H](CC(=O)O)C(=O)N[C@@H](Cc1ccccc1)C(=O)N[C@H](C(=O)N[C@@H](CCC(=O)O)C(=O)N[C@@H](Cc1c[nH]c2ccccc12)C(=O)N[C@@H](CC(C)C)C(=O)N[C@H](C(=O)N[C@@H](C)C(=O)NCC(=O)NCC(N)=O)C(C)C)C(C)C)C(=O)O` [g720] (H-HGQGTFTSDYSRYLDSK([γGlu-Palmitoyl])RARDFVEWLVAGG-NH2; N-terminus assumed), the EC50 at Human GlucR (Table 4, read-out: hGlucR EC50) stood at 0.352 nM; at Human GLP1R (Table 4, read-out: hGLP1R EC50), 0.0534 nM.
